Source: PMC9023544, “Ketone-selenoesters as potential anticancer and multidrug resistance modulation agents in 2D and 3D ovarian and breast cancer in vitro models” (Scientific Reports, 2022)

Experiments:
[1] = biological target: T1, human recombinant P-gp membrane fraction (Homo sapiens, UniProt P08183); experiment: P-gp-Glo assay, verapamil-stimulated P-gp ATPase activity; assay type: biochemical; settings: for IC50: read-out: IC50, verapamil-stimulated P-glycoprotein ATPase activity; for mechanism of P-gp inhibition: with and without verapamil
T1 construct: purchased Promega
T1 sequence (P08183 whole entry): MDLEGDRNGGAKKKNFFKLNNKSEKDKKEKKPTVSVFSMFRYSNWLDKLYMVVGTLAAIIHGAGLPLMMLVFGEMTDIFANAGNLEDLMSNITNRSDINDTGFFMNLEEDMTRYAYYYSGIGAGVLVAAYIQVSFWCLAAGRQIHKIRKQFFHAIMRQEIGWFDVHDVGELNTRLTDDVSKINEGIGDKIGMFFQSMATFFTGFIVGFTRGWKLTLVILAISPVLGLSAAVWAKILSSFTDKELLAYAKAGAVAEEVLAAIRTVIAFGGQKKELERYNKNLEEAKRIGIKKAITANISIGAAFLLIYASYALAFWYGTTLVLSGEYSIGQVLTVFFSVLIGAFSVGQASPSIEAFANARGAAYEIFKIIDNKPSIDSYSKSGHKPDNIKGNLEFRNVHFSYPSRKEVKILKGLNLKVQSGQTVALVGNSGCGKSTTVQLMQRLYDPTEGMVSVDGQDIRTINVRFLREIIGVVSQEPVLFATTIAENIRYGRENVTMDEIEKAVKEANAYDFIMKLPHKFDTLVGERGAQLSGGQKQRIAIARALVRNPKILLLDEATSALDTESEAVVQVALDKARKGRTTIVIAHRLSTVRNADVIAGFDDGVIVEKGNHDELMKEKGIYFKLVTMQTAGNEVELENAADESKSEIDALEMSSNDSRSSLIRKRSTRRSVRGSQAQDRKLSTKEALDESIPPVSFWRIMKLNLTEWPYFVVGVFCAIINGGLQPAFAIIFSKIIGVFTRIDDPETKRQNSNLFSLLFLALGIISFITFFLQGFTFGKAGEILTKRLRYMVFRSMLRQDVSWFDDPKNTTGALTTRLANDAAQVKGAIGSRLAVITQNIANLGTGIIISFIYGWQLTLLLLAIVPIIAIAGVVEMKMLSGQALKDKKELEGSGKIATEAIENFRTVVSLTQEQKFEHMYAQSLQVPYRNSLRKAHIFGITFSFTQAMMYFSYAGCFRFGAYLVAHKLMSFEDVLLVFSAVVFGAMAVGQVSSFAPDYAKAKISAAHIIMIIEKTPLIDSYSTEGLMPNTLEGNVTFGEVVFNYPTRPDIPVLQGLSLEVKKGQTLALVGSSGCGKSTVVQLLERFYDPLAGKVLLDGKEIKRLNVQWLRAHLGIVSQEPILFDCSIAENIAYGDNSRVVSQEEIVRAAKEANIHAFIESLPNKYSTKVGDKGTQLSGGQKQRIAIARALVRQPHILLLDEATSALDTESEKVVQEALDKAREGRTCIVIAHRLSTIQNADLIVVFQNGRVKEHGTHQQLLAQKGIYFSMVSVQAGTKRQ
Description: P-gp Glo™ Assay System represents a bioluminescent assay for the detection of P-gp ATPase activity. […] The activity of P-gp is inversely proportional to the luciferase-generated luminescent signal of unmetabolized ATP. For the detection of P-gp inhibitory potential, the compounds (concentration range 12.5–100 µM) were tested for their capacity to inhibit verapamil-stimulated P-gp ATPase activity in a competitive mode.
Using ATP standard curve and linear regression, the average amount of ATP consumed in presence of each compound was calculated. Afterwards, the specific P-gp activity (consumed ATP) was plotted versus the concentrations of the test compound and IC50 values were determined (Table 6). By using one-way ANOVA analysis, the statistical differences between compounds were identified; the compounds with the most statistically significant inhibition capacity was K3, followed by K4 and K7.
The modulation of P-glycoprotein ATPase activity was performed according to the manufacturer’s guidelines[54] and previously published work[55]. […] The reduction of verapamil-stimulated ATPase activity by selenoesters can indicate them as P-gp ATPase inhibitors. The reaction was initiated with 10 µL of MgATP (5 mM) addition to the final 50 µL volume. After 1 h incubation at 37 °C, the ATPase reaction was stopped with 50 µL of ATP detection reagent and subsequently the plate was incubated for 20 min at room temperature. Thanks to the luciferase reaction, it was possible to detect the remaining non-metabolized ATP as the luminescent signal. By using ATP standards and linear regression, the relative luminescent values (RLU) were converted to ATP concentration per reaction; and the amount of consumed ATP by the compounds was calculated.

[2] = system: HEK293 (human embryonic kidney cell line); experiment: Cytotoxic activity, non-cancerous cell line, resazurin, 72 h; assay type: cell-based; settings: for IC50: Homo sapiens, HEK293, 72 h, mean ± SEM, n=3
Description: The cytotoxic potential of selenoesters was tested on several cancer cell lines—HOC (human parental ovarian adenocarcinoma, HOC, A2780, Sigma-Aldrich), HOC/ADR (sub-line resistant to Adriamycin, A2780/ADR, Sigma-Aldrich), MCF-7 (human breast adenocarcinoma, ATCC®, HTB-22TM), MCF-7/PAX (resistant sub-line established by gradual adaptation of parental cells to increased concentration of paclitaxel; kindly provided by Division of Cell and Molecular Biology, Third Faculty of Medicine, Charles University, Czech Republic) and on one non-cancerous cell line—HEK293 (human embryonic kidney cell line, Leibniz Institute, DSMZ-German Collection of Microorganisms and Cell Cultures GmbH). All mentioned cell lines were authenticated using short tandem repeat (STR) profiling. Cell lines were cultivated in DMEM medium (10% FBS, 1× antibiotic antimycotic solution), except for HEK293 cell line which was cultivated without antibiotics. In case of the resistant cell lines, the medium was supplemented with a required concentration of cytostatics to maintain resistance (HOC/ADR—100 nM Adriamycin; MCF-7/PAX—300 nM paclitaxel). All cells were cultivated in a CO2 incubator (5% CO2, 37 °C, Thermo Fisher Scientific).
For the experiment, the cells at passage number 5–20 were seeded at a 1 × 10^5 cells/mL concentration into 96-well plates to 100 µL final volume. The final concentration range of the compounds was 0.63–20 µM. After an incubation of 72 h, the plates were washed 1× with PBS and resazurin solution (0.03 mg/mL in 1× PBS) was added. After 1 h of incubation, the fluorescence signal was recorded (ex./em. 560/590 nm).
The selectivity index (SI) was determined as the ratio of IC50 value for the non-cancerous cells to IC50 for the cancer cell line. For resistant cell lines, the collateral sensitivity (CS) was calculated as the ratio of IC50 value in sensitive tumour cells to IC50 in the resistant cancer cell line. In both cases, the selectivity is considered as: (1) strongly selective when SI or CS value is above 6, (2) moderately selective when SI or CS is between 3 and 6, (3) slightly selective when SI or CS is between 1 and 3 and (4) non-selective when SI or CS is less than 1[23].

Compound: CC(=O)C[Se]C(=O)c1ccc(Br)cc1 [K3]
- inhibition of verapamil-stimulated P-gp ATPase activity (luminescent signal) ([1]; K3 50 µM versus Na3VO4 100 µM): more effectively inhibited than sodium orthovanadate
- IC50 [1]: 11.7 ± 1 µM
- mechanism of P-gp inhibition [1]: competitively inhibits efflux of another substrate
- IC50 [2]: 2400 nM

Compound: CC(=O)C[Se]C(=O)c1ccccc1C(F)(F)F [K4]
- IC50 [1]: 23 ± 0.2 µM
- IC50 [2]: 5400 ± 400 nM
- selectivity indexes between HEK293 and cancer cell lines ([2]; all cancer cell lines tested): highest selectivity

Compound: CC(=O)C[Se]C(=O)c1ccc(C(C)(C)C)cc1 [K7]
- IC50 [1]: 25.7 ± 0.6 µM
- mechanism of P-gp inhibition [1]: non-competitive P-gp inhibitor
- IC50 [2]: 1500 ± 100 nM
